Test results reported in ChEMBL document CHEMBL1201862, “PubChem BioAssay data set” (2004).
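Each compound was tested at five concentrations against cells in 96-well plates for 48 hours. At the GI50, growth is halved.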 Activity calls are given as the source filed them. No stated cut-off is given here; in the data, active = GI50 up to about 1.1 µM and inactive = higher.

What was measured:
Assay in all cases: NCI tumour cell line growth inhibition, 48 h
SNB-78 = system: SNB-78
LXFL 529 = system: LXFL 529
DMS-273 = system: DMS-273
M19-MEL = system: M19-MEL
DLD-1 = system: DLD-1
KM-20L2 = system: KM-20L2
XF498 = system: XF498
RXF 631 = system: RXF 631
MDA-N = system: MDA-N

**Q.** How did the GI50 (SNB-78) turn out when `CCN(CC)Cc1cc(Nc2c3ccccc3nc3c4ccccc4n(C)c23)ccc1O` was run?
**A.** Its GI50 is 18.6 µM (inactive).

**Q.** What about the GI50 (LXFL 529) of the same compound?
**A.** The GI50 was 4.8 µM (inactive).

**Q.** What about the GI50 (DMS-273) of the same compound?
**A.** Its GI50 is 5.64 µM (inactive).

**Q.** What about the GI50 (M19-MEL) of the same compound?
**A.** The GI50 was 7.85 µM (inactive).

**Q.** What about the GI50 (DLD-1) of the same compound?
**A.** Its GI50 is 6.76 µM (inactive).

**Q.** And the GI50 (KM-20L2)?
**A.** The GI50 was 5.45 µM (inactive).

**Q.** What about the GI50 (XF498) of the same compound?
**A.** Its GI50 is 4.84 µM (inactive).

**Q.** What about the GI50 (RXF 631) of the same compound?
**A.** Its GI50 is 3.18 µM (inactive).

**Q.** How did the GI50 (SNB-78) turn out when `COc1ccc(Br)c(N/N=C2\CCCNC2=O)c1` was run?
**A.** The GI50 was > 100 µM (inactive).

**Q.** What about the GI50 (LXFL 529) of the same compound?
**A.** The GI50 was > 100 µM (inactive).

**Q.** And the GI50 (DMS-273)?
**A.** Its GI50 is > 100 µM (inactive).

**Q.** What about the GI50 (M19-MEL) of the same compound?
**A.** Its GI50 is > 100 µM (inactive).

**Q.** And the GI50 (DLD-1)?
**A.** Its GI50 is > 100 µM (inactive).

**Q.** What about the GI50 (KM-20L2) of the same compound?
**A.** The GI50 was > 100 µM (inactive).

**Q.** And the GI50 (XF498)?
**A.** The GI50 was 69.2 µM (inactive).

**Q.** And the GI50 (RXF 631)?
**A.** Its GI50 is > 100 µM (inactive).

**Q.** What does the source list for `C[C@]12CCC[C@H](O)[C@H]1C[C@H](CO)CC2`?
**A.** GI50 (LXFL 529): > 100 µM (inactive); GI50 (DMS-273): > 100 µM (inactive); GI50 (M19-MEL): > 100 µM (inactive); GI50 (DLD-1): > 100 µM (inactive); GI50 (KM-20L2): > 100 µM (inactive); GI50 (XF498): > 100 µM (inactive); GI50 (RXF 631): > 100 µM (inactive)

**Q.** What does the source list for `COC(=O)[C@@]12C=CC(=O)[C@H]3C[C@@H](C(C(C)C)C1)[C@]32OC` (stereo partly specified)?
**A.** GI50 (SNB-78): > 100 µM (inactive); GI50 (LXFL 529): > 100 µM (inactive); GI50 (DMS-273): > 100 µM (inactive); GI50 (M19-MEL): > 100 µM (inactive); GI50 (DLD-1): > 100 µM (inactive); GI50 (KM-20L2): > 100 µM (inactive); GI50 (XF498): > 100 µM (inactive); GI50 (RXF 631): > 100 µM (inactive)

**Q.** How did the GI50 (SNB-78) turn out when `N#Cc1ccccc1Nc1ccccc1S` was run?
**A.** Its GI50 is 37.6 µM (inactive).

**Q.** And the GI50 (LXFL 529)?
**A.** The GI50 was 22.5 µM (inactive).

**Q.** And the GI50 (DMS-273)?
**A.** Its GI50 is 34.5 µM (inactive).

**Q.** What about the GI50 (M19-MEL) of the same compound?
**A.** The GI50 was 39.4 µM (inactive).

**Q.** What about the GI50 (DLD-1) of the same compound?
**A.** Its GI50 is 35.6 µM (inactive).

**Q.** And the GI50 (XF498)?
**A.** Its GI50 is 18 µM (inactive).

**Q.** What about the GI50 (RXF 631) of the same compound?
**A.** The GI50 was 37.8 µM (inactive).

**Q.** Which results are given for `CCC1CN2CCc3cc(OC)c(OC)cc3C2CC1CC1c2cc(OC)c(OC)cc2CCN1C(=O)C1CCCN1` (stereo unspecified)?
**A.** GI50 (SNB-78): 47.4 µM (inactive); GI50 (LXFL 529): 24.5 µM (inactive); GI50 (DMS-273): 35.3 µM (inactive); GI50 (M19-MEL): 19.2 µM (inactive); GI50 (DLD-1): 30.1 µM (inactive); GI50 (XF498): 18.8 µM (inactive); GI50 (RXF 631): 28.7 µM (inactive)

**Q.** What does the source list for `COC1C(N)C(OC2C(Oc3cccc4c(O)c5c(=O)oc6ccc(C)c7c(=O)oc(c34)c5c67)OC(C)C(O)C2(C)O)OC(C)C1O` (stereo unspecified)?
**A.** GI50 (SNB-78): 0.0394 µM (active); GI50 (LXFL 529): < 0.0121 µM (active); GI50 (DMS-273): < 0.01 µM (active); GI50 (M19-MEL): 0.0166 µM (active); GI50 (DLD-1): 0.0206 µM (active); GI50 (MDA-N): 0.0743 µM (active); GI50 (KM-20L2): 0.0568 µM (active); GI50 (XF498): < 0.0116 µM (active); GI50 (RXF 631): 0.0351 µM (active)

**Q.** `CC1(C)SCc2nc3ncccc3n21` was tested. Which GI50 (SNB-78) did it give?
**A.** The GI50 was > 100 µM (inactive).

**Q.** And the GI50 (LXFL 529)?
**A.** The GI50 was > 100 µM (inactive).

**Q.** What about the GI50 (M19-MEL) of the same compound?
**A.** The GI50 was > 100 µM (inactive).

**Q.** And the GI50 (DLD-1)?
**A.** Its GI50 is > 100 µM (inactive).

**Q.** And the GI50 (KM-20L2)?
**A.** The GI50 was > 100 µM (inactive).

**Q.** And the GI50 (XF498)?
**A.** The GI50 was > 100 µM (inactive).

**Q.** What about the GI50 (RXF 631) of the same compound?
**A.** Its GI50 is > 100 µM (inactive).

**Q.** Which results are given for `COc1ccc2oc3cccc(NCCN(C)C)c3c(=O)c2c1`?
**A.** GI50 (SNB-78): 17.7 µM (inactive); GI50 (LXFL 529): 13.1 µM (inactive); GI50 (DMS-273): 12.1 µM (inactive); GI50 (M19-MEL): 15.3 µM (inactive); GI50 (DLD-1): 13.1 µM (inactive); GI50 (KM-20L2): 9.14 µM (inactive); GI50 (XF498): 14.5 µM (inactive); GI50 (RXF 631): 13.7 µM (inactive)

**Q.** `COC(=O)C(C(=O)C(=O)Nc1ccc(Br)cc1)c1nc2ccc(Cl)cc2nc1O` (stereo unspecified) was tested. Which GI50 (SNB-78) did it give?
**A.** Its GI50 is > 100 µM (inactive).

**Q.** And the GI50 (LXFL 529)?
**A.** The GI50 was > 100 µM (inactive).

**Q.** What about the GI50 (DMS-273) of the same compound?
**A.** The GI50 was > 70.6 µM (inactive).

**Q.** And the GI50 (M19-MEL)?
**A.** Its GI50 is > 100 µM (inactive).

**Q.** And the GI50 (DLD-1)?
**A.** The GI50 was > 100 µM (inactive).

**Q.** And the GI50 (KM-20L2)?
**A.** The GI50 was > 100 µM (inactive).

**Q.** And the GI50 (XF498)?
**A.** Its GI50 is > 100 µM (inactive).

**Q.** What about the GI50 (RXF 631) of the same compound?
**A.** Its GI50 is > 100 µM (inactive).

**Q.** What does the source list for `CC(C)(C)C1=CC(=NNC(=S)NCc2ccccc2)C=C(C(C)(C)C)C1=O`?
**A.** GI50 (LXFL 529): 63.1 µM (inactive); GI50 (DMS-273): > 100 µM (inactive); GI50 (M19-MEL): 98.4 µM (inactive); GI50 (DLD-1): 59.6 µM (inactive); GI50 (KM-20L2): > 100 µM (inactive); GI50 (XF498): > 100 µM (inactive); GI50 (RXF 631): > 100 µM (inactive)

**Q.** With `Cn1c(=O)nc2n(-c3ccc(Cl)cc3)c3cc(Cl)ccc3nc-2c1=O` as the compound, how does the GI50 (SNB-78) read?
**A.** Its GI50 is > 37.9 µM (inactive).

**Q.** And the GI50 (LXFL 529)?
**A.** Its GI50 is 1.7 µM (inactive).

**Q.** What about the GI50 (DMS-273) of the same compound?
**A.** Its GI50 is 3.56 µM (inactive).

**Q.** And the GI50 (M19-MEL)?
**A.** The GI50 was 1.75 µM (inactive).

**Q.** What about the GI50 (DLD-1) of the same compound?
**A.** The GI50 was 1.79 µM (inactive).

**Q.** And the GI50 (MDA-N)?
**A.** Its GI50 is 1.48 µM (inactive).

**Q.** And the GI50 (KM-20L2)?
**A.** Its GI50 is 3.44 µM (inactive).

**Q.** And the GI50 (XF498)?
**A.** The GI50 was 1.41 µM (inactive).

**Q.** What about the GI50 (RXF 631) of the same compound?
**A.** Its GI50 is 1.97 µM (inactive).

**Q.** Which results are given for `CCOC(OCC)C(CC)[Se]c1ccccc1` (stereo unspecified)?
**A.** GI50 (SNB-78): 64.3 µM (inactive); GI50 (LXFL 529): 35.6 µM (inactive); GI50 (DMS-273): 14.1 µM (inactive); GI50 (M19-MEL): 19.3 µM (inactive); GI50 (DLD-1): > 100 µM (inactive); GI50 (KM-20L2): 19.5 µM (inactive); GI50 (XF498): > 100 µM (inactive); GI50 (RXF 631): 8.49 µM (inactive)

**Q.** With `C=CCc1cc2cccc(OC)c2oc1=O` as the compound, how does the GI50 (SNB-78) read?
**A.** Its GI50 is > 100 µM (inactive).

**Q.** And the GI50 (LXFL 529)?
**A.** Its GI50 is 57 µM (inactive).

**Q.** What about the GI50 (DMS-273) of the same compound?
**A.** The GI50 was > 100 µM (inactive).

**Q.** What about the GI50 (M19-MEL) of the same compound?
**A.** The GI50 was > 100 µM (inactive).

**Q.** What about the GI50 (DLD-1) of the same compound?
**A.** Its GI50 is > 100 µM (inactive).

**Q.** And the GI50 (KM-20L2)?
**A.** Its GI50 is > 100 µM (inactive).

**Q.** And the GI50 (XF498)?
**A.** The GI50 was 7.24 µM (inactive).

**Q.** What about the GI50 (RXF 631) of the same compound?
**A.** The GI50 was > 100 µM (inactive).

**Q.** With `O=C1CCC2(c3ccccc3)Nc3ccccc3N12` (stereo unspecified) as the compound, how does the GI50 (SNB-78) read?
**A.** The GI50 was > 100 µM (inactive).

**Q.** What about the GI50 (LXFL 529) of the same compound?
**A.** Its GI50 is > 100 µM (inactive).

**Q.** And the GI50 (M19-MEL)?
**A.** The GI50 was > 100 µM (inactive).

**Q.** And the GI50 (DLD-1)?
**A.** Its GI50 is > 100 µM (inactive).

**Q.** What about the GI50 (KM-20L2) of the same compound?
**A.** Its GI50 is > 100 µM (inactive).

**Q.** What about the GI50 (XF498) of the same compound?
**A.** The GI50 was > 100 µM (inactive).

**Q.** And the GI50 (RXF 631)?
**A.** Its GI50 is > 100 µM (inactive).
